Earlier results as cited in US7879572B2, “Regulation of F1-ATPase beta subunit cellular location” (Board of Supervisors of Louisiana State University And …, priority 2004, dated 2011).

Legend:
islet cells = settings: 8-Br-cAMP 1 mM, independent of extracellular Ca2+

NCCc1c[nH]c2ccc(O)cc12 [serotonin]
dietary fat intake (injections into the PVN): inhibited dietary fat intake

Nc1ncnc2c1nc(Br)n2[C@@H]1O[C@@H]2COP(=O)(O)O[C@H]2[C@H]1O [8-Br-cAMP]
effect on enterostatin inhibition of insulin secretion (islet cells): blocked

Oc1ccc2c3c1O[C@H]1c4[nH]c5c(c4C[C@@]4(O)[C@@H](C2)N(CC2CC2)CC[C@]314)C[C@@]1(O)[C@H]2Cc3ccc(O)c4c3[C@@]1(CCN2CC1CC1)[C@H]5O4 [nor-Binaltorphamine (BNI), nor-Binaltorphamine]
selective fat intake (kappa-opioidergic antagonist): mimicked the effect of enterostatin
